Laboratory results taken from paper PMC2270722, “Influence of Cocoa Flavanols and Procyanidins on Free Radical-induced Human Erythrocyte Hemolysis” (Clinical and Developmental Immunology, 2005).

Experiments:
human erythrocytes = assay: in vitro AAPH-induced erythrocyte hemolysis, percent inhibition by purified flavonoids; format: cell-based; parameters: level of protection compared with ascorbic acid: dose or concentration left out as unconfirmed; details: for level of protection compared with ascorbic acid: Figure 3; for protection of human erythrocytes from free radical-induced hemolysis at lowest concentration: concentration as low as 2.5 mM; for protection against AAPH-induced erythrocyte hemolysis: concentrations 2.5 to 20 μM, 200 mM AAPH, 3 h
From the text: (§1) Influence of cocoa flavanols and procyanidins on free radical-induced human erythrocyte hemolysis QIN YAN ZHU1 , DEREK D. SCHRAMM1 , HEIDRUN B. GROSS1 , ROBERTA R. HOLT1 , SUN H. KIM3 , TOMOKO YAMAGUCHI4 , CATHERINE L. KWIK-URIBE5 , & CARL L. KEEN1,2 1 Department of Nutrition, University of California, One Shields Avenue, Davis, CA 95616-8669, 2 Internal Medicine, University of California, One Shields Avenue, Davis, CA 95616-8669, 3 Department of Food Service Management and Nutrition, Kongju National University, Republic of Korea, 4 Department of Food Science and Nutrition, Nara Women's University, Japan, and 5 Analytical & Applied Sciences, Mars Incorporated, Hackettstown, NJ, USA Abstract Cocoa can be a rich source of antioxidants including the flavan-3-ols, epicatechin and catechin, and their oligomers (procyanidins). While these flavonoids have been reported to reduce the rate of free radical-induced erythrocyte hemolysis in experimental animal models, little is known about their effect on human erythrocyte hemolysis. The major objective of this work was to study the effect of a flavonoid-rich cocoa beverage on the resistance of human erythrocytes to oxidative stress. A second objective was to assess the effects of select purified cocoa flavonoids, epicatechin, catechin, the procyanidin Dimer B2 and one of its major metabolites, 30 -O-methyl epicatechin, on free radical-induced erythrocyte hemolysis in vitro. Peripheral blood was obtained from 8 healthy subjects before and 1, 2, 4 and 8 h after consuming a flavonoid-rich cocoa beverage that provided 0.25 g/kg body weight (BW), 0.375 or 0.50 g/kg BW of cocoa. Plasma flavanol and dimer concentrations were determined for each subject. Erythrocyte hemolysis was evaluated using a controlled peroxidation reaction. Epicatechin, catechin, 30 -O-methyl epicatechin and (-)-epicatechin-(4b . 8)-epicatechin (Dimer B2) were detected in the plasma within 1 h after the consumption of the beverage. […] The duration of the lag time, which reflects the capacity of cells to buffer free radicals, was increased. […] Erythrocytes from subjects consuming flavonoid-rich cocoa show reduced susceptibility to free radical-induced hemolysis p , 0:05. Keywords: Cocoa, flavanol, membrane oxidation, erythrocyte,-catechin, 3 0 -O-methyl epicatechin Introduction Flavonoids are a diverse group of polyphenolic compounds occurring in fruit, vegetables, tea and red wine. Diets rich in these compounds have been associated with a reduced risk for cardiovascular disease (Knekt et al. 2002, Kris-Etherton et al. 2004, Mennen et al. 2004, Morton et al. 2000, Sagara et al. 2004, Sesso et al. 2003). Depending on their processing, cocoa and chocolate can be rich sources of flavonoids, particularly the subclass of oligomeric flavonoids known as procyanidins (Adamson et al. 1999, Sanchez-Rabaneda et al. 2003, Steinberg et al. 2003) (Figure 1). Flavanols and procyanidins isolated from cocoa and chocolate have received considerable attention over the last several years as potential cardiovascular protective agents with putative positive effects on platelet function, blood pressure regulation, nitric oxide production, oxidative defense and the immune system (Heiss et al. 2003, Maron, 2004; Fisher et al. 2003; Pearson et al. 2002, Sadik et al. 2003, Taubert et al. 2003, Wan et al. 2001). ISSN 1740-2522 print/ISSN 1740-2530 online q 2005 Taylor & Francis Group Ltd. DOI: 10.1080/17402520512331329514 Correspondence: Carl L. Keen, Department of Nutrition, University of California, One Shields Avenue, Davis, CA 95616-8669. Tel: 1 530 752 6331. Fax: 1 530 752 8966. E-mail: clkeen@ucdavis.edu Clinical & Developmental Immunology, March 2005; 12(1): 27-34 These compounds can modulate the actions of oxidant-responsive transcription factor NF-kB (Mackenzie et al. 2004), and diets rich in cocoa flavonoids may be associated with reductions in DNA oxidative damage (Orozco et al. 2003). […]

[1] = plasma flavanol and dimer concentrations by HPLC after cocoa beverage; format: in vivo, human; details: for time by which detected in the plasma: after consumption of the cocoa beverage, human subjects; for concentration in human plasma reached: after high dose of cocoa (0.50 g/kg BW)
From the text: as §1

[2] = antioxidant activity (preliminary, unpublished); details: preliminary work, unpublished data

Compound	level of protection compared with ascorbic acid (human erythrocytes)	protection of human erythrocytes from free radical-induced hemolysis at lowest concentration (human erythrocytes)	protection against AAPH-induced erythrocyte hemolysis (human erythrocytes)	time by which detected in the plasma [1] [h]	antioxidant activity compared with Dimer B2 [2]	concentration in human plasma reached [1]	protection compared with Dimer B2 (human erythrocytes; individual compounds in vitro)
COc1cc([C@H]2Oc3cc(O)cc(O)c3C[C@H]2O)ccc1O [3ʹ-O-methyl epicatechin]	exceeded that of ascorbic acid	significantly protect	dose-dependent protection	≤ 1			
Oc1cc(O)c2c(c1)O[C@H](c1ccc(O)c(O)c1)[C@H](O)[C@H]2c1c(O)cc2c(c1O)C[C@@H](O)[C@@H](c1ccc(O)c(O)c1)O2 [Dimer B5, epicatechin-(4b . 6)-epicatechin]					more antioxidant activity than Dimer B2		
O.Oc1cc(O)c2c(c1)O[C@H](c1ccc(O)c(O)c1)[C@@H](O)C2 [catechin]	exceeded that of ascorbic acid	significantly protect	dose-dependent protection	≤ 1		210 nm	
Oc1cc(O)c2c(c1)O[C@H](c1ccc(O)c(O)c1)[C@H](O)C2 [epicatechin, (-)-epicatechin]	exceeded that of ascorbic acid	significantly protect	dose-dependent protection	≤ 1		2860 nM	stronger protection than Dimer B2
(-)-epicatechin-(4β > 8)epicatechin [Dimer B2]	exceeded that of ascorbic acid		dose-dependent protection	≤ 1			
